Data taken from a melting point compilation (Tetko et al.).

Settings: a range is the spread between reports

Row | Structure (SMILES) | melting point [°C]
1 | CS(C)=O | 18 to 18.5
2 | CCCCCCCCCCCC[N+](C)(C)[O-] | 130 to 132
3 | CC=C(C)C(C)C | -124
4 | O=[N+]([O-])c1ccc(CCl)cc1 | 71 to 73
5 | O=[N+]([O-])c1ccc(Oc2ccc(Cl)cc2Cl)cc1 | 70 to 70.5
6 | CC12CCC(C1)C(C)(C)C2=O (centres undefined) | 5 to 6.1
7 | CCCCCCCCCCCCCl | -9.3 to -9
8 | C1CCNCC1 | -11 to -7
9 | N#Cc1ccc(N)cc1 | 84 to 85
10 | COC(=O)NN | 72 to 73
11 | CCCCSC | -98 to -97.8
12 | Clc1cc(Cl)c(Cl)c(Cl)c1 | 51.5 to 55
13 | CC(C)Cl | -118 to -117
14 | CCCCCCCCCCCCCCCCCC(=O)OC[C@@H](O)[C@H]1OC[C@H](O)[C@H]1O | 55 to 57
15 | CCC(CC)C(C)C | -115
16 | CC(CO)(CO)[N+](=O)[O-] | 150
17 | CCCCCCC#N | -64 to -63
18 | N#Cc1cccc(C#N)c1 | 161 to 162
19 | CC(F)(F)Cl | -131
20 | O=C1C(F)=C(F)C(=O)C(F)=C1F | 179 to 184
21 | NCC1CCNCC1 | 24 to 25
22 | CC(O)CNCC(C)O (centres undefined) | 42 to 44.5
23 | C=CC(N)=O | 84 to 84.5
24 | CCCCCCCCCCCCCC(=O)OCC | 12 to 12.3
25 | CNC(=O)NC(C)=O | 178 to 180

Row | Structure (SMILES) | melting point [°C]
26 | CC(=O)CCC(C)=O | -7 to -5.5
27 | CC(C)OC(C)C | -86.8 to -86
28 | Cc1ccc(CCl)cc1 | 4 to 5
29 | CCCCCCCO | -36 to -33.2
30 | Cc1ccc(C)cc1 | 12 to 13.2
31 | CNC(=O)Oc1ccccc1OC(C)C | 90 to 91.5
32 | CCC(=O)C(CC(C)N(C)C)(c1ccccc1)c1ccccc1 (centres undefined) | 98.8 to 102
33 | CC(Cl)(Cl)Cl | -33 to -30
34 | NCCNCCN | -40 to -35
35 | N=C(Nc1ccccc1)Nc1ccccc1 | 149 to 150
36 | CCOC(=O)CCCCCCCCC(=O)OCC | 2 to 5
37 | O=C(O)C(Cl)=C(Cl)Cl | 73 to 76
38 | ClC(Cl)(Cl)Cl | -23 to -22.9
39 | NCCCCNCCCN | 23.5 to 24
40 | CC(C)C(C)(C)C(C)(C)C | -36.4 to -36
41 | CC(=O)c1ccc(C#N)cc1 | 57 to 59
42 | CC(C)=C(C)C | -75 to -74
43 | Cc1ccc(S(=O)(=O)F)cc1 | 41 to 41.5
44 | C=C | -169
45 | O=P(O)(O)CP(=O)(O)O | 200 to 203
46 | CC=O | -128 to -123
47 | CCCCCCCCCCCCCCCCCCCC | 36 to 37
48 | N#CC1=C(C#N)C(=O)C(Cl)=C(Cl)C1=O | 214 to 215
49 | CCNC(=S)NCC | 77 to 78
50 | CCOC(N)=O | 48 to 49

Row | Structure (SMILES) | melting point [°C]
51 | SCCS | -41.2 to -41
52 | NCCS | 96 to 98
53 | CCOP(=S)(OCC)Oc1nc(Cl)c(Cl)cc1Cl | 41.5 to 42.5
54 | CCCCCCCCCCO | 6 to 7
55 | O=C(O)CCCCCCCCCCC(=O)O | 128 to 129
56 | Cc1ccccc1CBr | 19 to 21
57 | CCCCCC#N | -80.3 to -80
58 | ClCCBr | -18 to -16.7
59 | CN[C@@H](C)[C@H](O)c1ccccc1 | 34 to 36
60 | N#CCc1ccc(Cl)cc1 | 30 to 31
61 | CCCCCS | -76 to -75.7
62 | C=CC(CC)CC | -128 to -127
63 | N#CCC(=O)c1ccccc1 | 80.5 to 83
64 | COc1ccc(N)cc1 | 57 to 59
65 | OC(c1ccc(Cl)cc1)(c1ccc(Cl)cc1)C(Cl)(Cl)Cl | 77.5 to 78.5
66 | O=C(c1ccc(Cl)cc1)c1ccc(Cl)cc1 | 145 to 148
67 | CCCCCCCBr | -58 to -56
68 | CCCCCCC=O | -43.3 to -43
69 | CCCCC(C)C | -118
70 | NCCCN1CCN(CCCN)CC1 | 14 to 15
71 | CCS | -148
72 | CC(C)c1ccc(O)cc1 | 60 to 62.3
73 | C1=Cc2cccc3cccc1c23 | 91 to 92.5

The remaining lines, values ahead:

Row | melting point [°C] | Structure (SMILES)
74 | 142 to 144 | C=Cc1ccc(C(=O)O)cc1
75 | 64.5 to 65 | Cn1nnc2ccccc21
76 | 167 to 172 | Cc1cc(NS(=O)(=O)c2ccc(N)cc2)no1
77 | 53 to 55 | c1cnccn1
78 | 181 to 182 | O=Cc1cc(Br)c(O)c(Br)c1
79 | 76 to 79 | CCN1C(=O)c2ccccc2C1=O
80 | 131 to 132 | S=C=Nc1ccc(N=C=S)cc1
81 | 56 to 57 | Clc1cc(Cl)cc(I)c1
82 | 23.5 to 26 | C=Cc1ccc(N)cc1
83 | 172 to 173 | N#Cc1ccccc1C(N)=O
84 | 156 to 161 | O=C(O)Cc1c(Cl)ccc(Cl)c1Cl
85 | -50 to -49.5 | CCc1cccc(C)c1C
86 | 104 to 106 | OCC1c2ccccc2-c2ccccc21
87 | 79 to 81 | Cc1cc(N)ccc1Br
88 | -7.4 to -7 | CC(C)c1cc(C(C)C)cc(C(C)C)c1
89 | 42 to 43 | O=C(Oc1ccccc1)c1ccccc1O
90 | 145 to 146 | NS(=O)(=O)c1ccc(Cl)cc1
91 | 34 to 38 | CCN(CC)c1ccc(Br)cc1
92 | 94.5 to 97 | COc1ccc(C(=O)OC(=O)c2ccc(OC)cc2)cc1
93 | 235 to 239 | Nc1ccc2cc3ccccc3cc2c1
94 | 104 to 105 | O=C(O)COc1ccc(F)cc1
95 | 136 to 137 | CCOc1cccc(C(=O)O)c1
96 | 12 to 15.5 | O=C(Cl)c1ccccc1C(=O)Cl
97 | 79 to 83 | O=Cc1c(O)ccc2ccccc12

Row | melting point [°C] | Structure (SMILES)
98 | 43 to 47 | CCc1ccc(O)cc1
99 | 180 to 182 | Oc1ccc2cccc(O)c2c1
100 | 254 | O=C(O)c1ccnc2ccccc12
101 | 93.5 to 95 | O=Cc1cc2c(cc1[N+](=O)[O-])OCO2
102 | 156 to 158 | O=C(O)c1ccc2ccccc2n1
103 | 138 to 142 | Cc1ccc[nH]c1=O
104 | -1.8 to -1 | Brc1cccc2ccccc12
105 | 198 to 199 | CN1C(=C(O)Nc2ccccn2)C(=O)c2ccccc2S1(=O)=O
106 | 200 to 201 | Cc1c(C2(c3cc(C(C)C)c(O)c(Br)c3C)OS(=O)(=O)c3ccccc32)cc(C(C)C)c(O)c1Br
107 | 91.5 to 93 | c1ccc(CN(Cc2ccccc2)Cc2ccccc2)cc1
108 | 205 to 207 | CC(=O)Nc1ccc(C#N)cc1
109 | 56 to 57 | O=C(c1ccccc1)c1cccs1
110 | 173 to 178 | NC(=O)c1ccc(Cl)cc1
111 | -31.3 to -31 | Ic1ccccc1
112 | 98 to 100 | O=C(O)c1cc(F)c(F)cc1F
113 | 4 to 4.5 | O=C1C=CCO1
114 | 158 to 160 | COc1ccc2c(c1)c(CC(=O)O)c(C)n2C(=O)c1ccc(Cl)cc1
115 | 30 to 31 | N#Cc1c(F)cccc1F
116 | 196 to 199 | c1ccc2c(c1)c1ccccc1c1ccccc21
117 | 64 to 65 | O=C(O)CSc1ccccc1
118 | 3.5 to 4 | O=[N+]([O-])c1c(F)cc(F)cc1F
119 | -63.1 to -63 | C=Cc1ccccc1Cl
120 | 14.5 to 16 | N#Cc1cccc(C(F)(F)F)c1
121 | 154 | O=C1C=Cc2cccc3cccc1c23

Row | melting point [°C] | Structure (SMILES)
122 | 70 to 72 | O=C(c1ccccc1)c1ccncc1
123 | 35.5 to 36 | O=Cc1ccc([N+](=O)[O-])o1
124 | 62 to 67 | COC(=O)c1ccc(C#N)cc1
125 | 101 to 102 | CC(=O)n1ccnc1
126 | 188 to 189 | O=C(O)c1ccc(F)cc1F
127 | 103 to 107 | COc1cccc(C(=O)O)c1
128 | 62 to 64 | OCc1ccccc1CO
129 | 58.5 to 59.5 | COC1=C(OC)C(=O)C(C)=CC1=O
130 | 6 to 8.2 | C=C(c1ccccc1)c1ccccc1
131 | 181 to 183 | CC(=O)Nc1c(C)cccc1C
132 | -80 to -79.5 | C1=CC=CCC=C1
133 | 103 to 106 | CCOC(=O)c1c[nH]nc1N
134 | 10 to 12.4 | c1ccc(Cc2ccncc2)cc1
135 | 70 to 72 | CN(C)c1cccc2c(S(=O)(=O)Cl)cccc12
136 | 146 to 147 | O=C(O)C(c1ccccc1)c1ccccc1
137 | 82 to 87 | CCOC(=O)c1cc(C)n[nH]1
138 | -0.2 to 0 | Cc1ccccc1-c1ccccc1
139 | 109 to 112 | Cc1cccc(C(=O)O)c1
140 | 67 to 68 | OCC(O)c1ccccc1 (centres undefined)
141 | 53 to 53.2 | Cc1ccc([N+](=O)[O-])c(F)c1
142 | -74.1 to -74 | CCc1cc(C)cc(CC)c1
143 | 87 to 89 | CC(=O)Nc1ccccc1Cl
144 | 44 to 48.5 | COc1cccc(OC)c1OC
145 | 14 to 14.5 | CC(C)c1ccc2ccccc2c1

Row | melting point [°C] | Structure (SMILES)
146 | 40 to 41 | COc1cc(Cl)cc(Cl)c1
147 | 108 to 110 | CCN1CCNC(=O)C1=O
148 | 64.5 to 65 | O=S1(=O)CC=CC1
149 | 80 to 81.5 | Oc1cccc(Nc2ccccc2)c1
150 | -42.2 to -40 | Fc1ccccc1
151 | 71 to 72.5 | COc1ccc(OC)c([N+](=O)[O-])c1
152 | 36 to 36.9 | C=C(C)[C@@H]1CCC2=CC(=O)C[C@@H](C)[C@]2(C)C1
153 | 348 | O=c1[nH]c(=O)c2nccnc2[nH]1
154 | 102 to 104 | NNc1cc(Cl)ccc1Cl
155 | 70 to 72 | c1ccc(-c2ccccn2)nc1
156 | 39 to 40 | O=C(c1ccccc1)c1ccccc1O
157 | 224 to 226 | N#Cc1ccc(C#N)cc1
158 | 49 to 51 | COc1ccc(C(C)=O)cc1OC
159 | 186 to 188 | CC(C)(C)c1cc(C=O)cc(C(C)(C)C)c1O
160 | 114 to 115 | OC(CCN1CCCCC1)(c1ccccc1)C1CCCCC1 (centres undefined)
161 | 234 to 238 | N#Cc1ccc(-c2ccc(C#N)cc2)cc1
162 | -23.2 to -23 | C=C(C)c1ccccc1
163 | 43.5 to 44 | CCOC(=O)c1ccc(OC)c(OC)c1
164 | 211 to 213 | Cc1n[nH]c(=O)[nH]c1=O
165 | 25 to 26 | COc1ccc(Br)c(OC)c1
166 | 21 to 23 | C/C=C/c1ccc(OC)cc1
167 | 176 to 177 | Nc1ccc(S(=O)(=O)c2ccc(N)cc2)cc1
168 | 118 to 121 | Nc1cc([N+](=O)[O-])ccc1Cl
169 | 84 to 88 | COc1cc(Cl)c(Cl)c(Cl)c1Cl
